Square brackets hold non-standard residues; d marks the D form. Peptide text beside a SMILES is read from it. * marks the point of attachment. Pyrrolidine(2S-propanoyl) = CCC(=O)[C@@H]1CCCN1*; X2 = C#CCCCC[C@H](C)C[C@@H](C)C(=O)*; NMeI = CC[C@H](C)[C@H](NC)C(=O)O; X1 = C#CCCCCCC[C@@H](C)C(=O)*; NMeV = CN[C@H](C(=O)O)C(C)C

One data set has as its system 3T3-L1. Description: Cytotoxicity against mouse 3T3-L1 cells assessed as reduction in cell viability at 30 uM in presence of insulin measured after 3 days by MTT assay. The data set is classed as toxicity, cell-based. The settings on record: 3t3-l1, 72 h, time 3 day. (Tetrazolium dyes change colour on reduction, which living cells bring about.)
Data set [1] is described as follows: Effect on preadipocyte differentiation in mouse 3T3-L1 cells assessed as lipid droplet accumulation at 10 uM in presence of insulin measured after 9 days by Oil Red O staining based assay. Format: functional. The settings on record: time 9 day.

As for `C#CCCCCCC[C@@H](C)C(=O)N(C)[C@H](C(=O)N(C)[C@H](C(=O)N1CCC[C@H]1C(=O)N(C)[C@H](C(=O)N1CCC[C@H]1C(=O)CC)C(C)C)[C@@H](C)CC)C(C)C` (X1-[NMeV][NMeI]P[NMeV]-{Pyrrolidine(2S-propanoyl)}), the Activity result with 3T3-L1 is “Non-Toxic”. Further, in data set [1], the “fold change (FC)” value amounted to 1.9.
For `C#CCCCC[C@H](C)C[C@@H](C)C(=O)N(C)[C@H](C(=O)N(C)[C@H](C(=O)N1CCC[C@H]1C(=O)N(C)[C@H](C(=O)N1CCC[C@H]1C(=O)CC)C(C)C)[C@@H](C)CC)C(C)C` (X2-[NMeV][NMeI]P[NMeV]-{Pyrrolidine(2S-propanoyl)}), in the data set on 3T3-L1, the Activity result is on record as “Non-Toxic”. Besides, the “fold change (FC)” value in data set [1] worked out at 2.1.

The values above are taken from ChEMBL document CHEMBL5046243, “Odookeanynes A and B, Acetylene-Containing Lipopeptides from an Okeania sp. Marine Cyanobacterium” (J Nat Prod, 2022).
